Measurements as given in article doi:10.1101/157495v1 (biorxiv, 2017).
pKd: −log10 of the molar value.

Key:
AncCDT-1 = test: isothermal titration calorimetry; type: binding, synthetic construct; conditions: 20 mM Na2HPO4, 150 mM NaCl, pH 7.4, 25 °C; on-column refolded protein
Pu1068 = biological target: T1, Pu1068 (Candidatus Pelagibacter communis, UniProt Q4FLR5); test: intrinsic tryptophan fluorescence titration; type: binding
T1 sequence (Q4FLR5 19-255): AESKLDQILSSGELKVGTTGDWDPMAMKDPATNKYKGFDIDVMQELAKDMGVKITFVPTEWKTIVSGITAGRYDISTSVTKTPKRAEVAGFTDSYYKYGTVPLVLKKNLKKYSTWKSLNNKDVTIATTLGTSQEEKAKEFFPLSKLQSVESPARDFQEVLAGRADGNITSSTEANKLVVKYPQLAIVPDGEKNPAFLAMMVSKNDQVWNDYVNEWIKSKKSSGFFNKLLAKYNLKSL

Ws0279 = Ws0279 (Wolinella succinogenes, UniProt Q7MAG0); test: biochemical; conditions: read-out: ΔTM
Ws0279, sequence (Q7MAG0 24-258): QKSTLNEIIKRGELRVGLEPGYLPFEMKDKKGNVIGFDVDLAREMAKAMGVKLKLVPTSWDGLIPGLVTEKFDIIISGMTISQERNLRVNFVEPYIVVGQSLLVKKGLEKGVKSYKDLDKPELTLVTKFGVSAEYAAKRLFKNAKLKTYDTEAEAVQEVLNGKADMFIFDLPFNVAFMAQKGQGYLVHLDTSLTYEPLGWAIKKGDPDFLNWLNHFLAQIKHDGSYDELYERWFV

pKd (Pu1068)	SMILES	pKd (AncCDT-1)	ΔTm at 10000 µM (Ws0279) [°C]
–	N[C@@H](Cc1cnc[nH]1)C(=O)O [L-histidine]	5.64	–
–	NCCC[C@H](N)C(=O)O [L-ornithine]	5.92	–
–	N=C(N)NCCC[C@H](N)C(=O)O [L-arginine]	6.49	–
3.28	C[N+]1(CCCS(=O)(=O)[O-])CCCCC1 [NDSB-221, 3-(1-methylpiperidinium-1-yl)propane-1-sulfonate]	–	–
–	NCCCC[C@H](N)C(=O)O [L-lysine]	5.17	7.2
